Measured values taken from patent publication US10798943B2, “Use of 6-anilino purine derivatives to improve heat stress tolerance of rice seedlings” (SYNGENTA PARTICIPATIONS AG, priority 2016, dated 2020).

Test system: rice seedlings (hybrid rice variety ADT45)
Test: Phytotoxicity assessments at Ramapuram trial
Assay type: in vivo
Details: for Greenness at 3.2 leaf / Seedling height at 3.2 leaf / Seedling injury / Time to 3.2 leaf / Uniformity of foliage growth at 3.2 leaf / Uniformity of greening at 3.2 leaf / Whiteness of root mat at 3.2 leaf: Ramapuram
Procedure: For each trial, hybrid rice variety ADT45 was sown in seedling boxes. A compound of formula (Ia) was applied by foliar spray in the form of an EC formulation, at various dose rates and seedling growth stages as shown in Table 1. [table] […] The trial was carried out between 5 Aug. 2015 and 9 Sep. 2015, with transplanting on 15 Aug. 2015. The mean maximum daily temperature during the trial period was 35.3° C., and mean minimum daily temperature during the trial period was 23.7° C. The mean temperature during the entire trial period was 30.2° C.

[1] = treatment 2: 5 g ai/ha, Pigeon-breast
[2] = treatment 3: 10 g ai/ha, Pigeon-breast
[3] = treatment 4: 20 g ai/ha, Pigeon-breast
[4] = treatment 6: 10 g ai/ha, 2-leaf
[5] = treatment 7: 20 g ai/ha, 2-leaf
[6] = treatment 9: 10 g ai/ha, 3-leaf
[7] = treatment 10: 20 g ai/ha, 3-leaf

COc1cccc(Nc2nc(F)nc3[nH]cnc23)c1 [Formula Ia]
Phytotoxic effects to the rice seedlings (summary) (Ramapuram trial, some marginal effects at the highest dose rate): did not cause any phytotoxic effects | Greenness at 3.2 leaf [1]: 3 unit | Seedling height at 3.2 leaf [1]: 13 cm | Seedling injury [1]: 0% | Time to 3.2 leaf [1]: 14 days | Uniformity of foliage growth at 3.2 leaf [1]: 90% | Uniformity of greening at 3.2 leaf [1]: 95% | Whiteness of root mat at 3.2 leaf [1]: 90% | Greenness at 3.2 leaf [2]: 3 unit | Seedling height at 3.2 leaf [2]: 13 cm | Seedling injury [2]: 0% | Time to 3.2 leaf [2]: 14 days | Uniformity of foliage growth at 3.2 leaf [2]: 90% | Uniformity of greening at 3.2 leaf [2]: 95% | Whiteness of root mat at 3.2 leaf [2]: 90% | Greenness at 3.2 leaf [3]: 3 unit | Seedling height at 3.2 leaf [3]: 13 cm | Seedling injury [3]: 0% | Time to 3.2 leaf [3]: 14 days | Uniformity of foliage growth at 3.2 leaf [3]: 90% | Uniformity of greening at 3.2 leaf [3]: 95% | Whiteness of root mat at 3.2 leaf [3]: 90% | Greenness at 3.2 leaf (treatment 5: 5 g ai/ha, 2-leaf): 3 unit | Seedling height at 3.2 leaf (treatment 5: 5 g ai/ha, 2-leaf): 15 cm | Seedling injury (treatment 5: 5 g ai/ha, 2-leaf): 0% | Time to 3.2 leaf (treatment 5: 5 g ai/ha, 2-leaf): 13 days | Uniformity of foliage growth at 3.2 leaf (treatment 5: 5 g ai/ha, 2-leaf): 90% | Uniformity of greening at 3.2 leaf (treatment 5: 5 g ai/ha, 2-leaf): 95% | Whiteness of root mat at 3.2 leaf (treatment 5: 5 g ai/ha, 2-leaf): 85% | Greenness at 3.2 leaf [4]: 3 unit | Seedling height at 3.2 leaf [4]: 15 cm | Seedling injury [4]: 2% | Time to 3.2 leaf [4]: 13 days | Uniformity of foliage growth at 3.2 leaf [4]: 90% | Uniformity of greening at 3.2 leaf [4]: 95% | Whiteness of root mat at 3.2 leaf [4]: 85% | Greenness at 3.2 leaf [5]: 2.5 unit | Seedling height at 3.2 leaf [5]: 15 cm | Seedling injury [5]: 5% | Time to 3.2 leaf [5]: 13 days | Uniformity of foliage growth at 3.2 leaf [5]: 90% | Uniformity of greening at 3.2 leaf [5]: 85% | Whiteness of root mat at 3.2 leaf [5]: 80% | Greenness at 3.2 leaf (treatment 8: 5 g ai/ha, 3-leaf): 3 unit | Seedling height at 3.2 leaf (treatment 8: 5 g ai/ha, 3-leaf): 14 cm | Seedling injury (treatment 8: 5 g ai/ha, 3-leaf): 0% | Time to 3.2 leaf (treatment 8: 5 g ai/ha, 3-leaf): 13 days | Uniformity of foliage growth at 3.2 leaf (treatment 8: 5 g ai/ha, 3-leaf): 90% | Uniformity of greening at 3.2 leaf (treatment 8: 5 g ai/ha, 3-leaf): 95% | Whiteness of root mat at 3.2 leaf (treatment 8: 5 g ai/ha, 3-leaf): 90% | Greenness at 3.2 leaf [6]: 3 unit | Seedling height at 3.2 leaf [6]: 15 cm | Seedling injury [6]: 0% | Time to 3.2 leaf [6]: 13 days | Uniformity of foliage growth at 3.2 leaf [6]: 90% | Uniformity of greening at 3.2 leaf [6]: 95% | Whiteness of root mat at 3.2 leaf [6]: 90% | Greenness at 3.2 leaf [7]: 3 unit | Seedling height at 3.2 leaf [7]: 15 cm | Seedling injury [7]: 0% | Time to 3.2 leaf [7]: 13 days | Uniformity of foliage growth at 3.2 leaf [7]: 90% | Uniformity of greening at 3.2 leaf [7]: 95% | Whiteness of root mat at 3.2 leaf [7]: 90%
